Source: patent US20260347403A1, “FUNGICIDAL COMPOUND” (priority 2022, published 2026)
Several values for one entry are separate records, joined by “and”; a condition that tells them apart may be missing. Equal entries are not always repeated. Numbered stars: 1 amine (or outer) side, 2 acyl side, 3 side chain; on linkers, the order of the positions; unused ones are H or OH. Bridge positions count the residues as written; N and C are the ends. Square brackets hold non-standard residues; d marks the D form. Peptide text beside a SMILES is read from it. * marks the point of attachment. Tridecanoyl(12-Me) = CC(C)CCCCCCCCCCC(=O)*; X1 = NC(=O)CC(O)C(N[*:1])C(=O)[*:2]; NMeF = CN[CH](Cc1ccccc1)C(=O)O; NMeN = CN[CH](CC(N)=O)C(=O)O

Experiments:
Puccinia recondita [1] = test: Leaf disc mixture assay with malonomicin, Puccinia recondita, curative spray timing, 8 dpi; assay type: in vivo, Puccinia recondita on wheat (cultivar Kanzler)
Method: (§1) A stock solution for the lipopeptide compound of Formula I(a) was produced in DMSO (max. 10 mg/ml). Malonomicin was produced according to Law et al, 2018 (Nature Catalys is |VOL 1|DECEMBER 2018|977-984). A stock solution of malonomicin was produced in water plus 0.025% Tween®20.
(§2) Assays to test efficacy of mixtures of compound of Formula I(a) in combination with malonomicin on the control of fungal pathogens in a leaf disc assay were designed for two 24well plates.
(§3) Table 22 and Table 23. Outline of 24well testplate (1) and testplate (2) including concentration of compounds sprayed per well. The upper number in the cell indicates compound of Formula I(a) concentration (ppm), the lower number malonomicin concentration (ppm). Column (1) holds a dilution series of compound of Formula I(a), row (2-D) hold a dilution series of malonomicin. Well 2-D-(1) represents an untreated check. This design was applied for tests including Puccinia recondita (EPPO code: PUCCRE) with preventive and curative spray timing.
(§4) A first set of master plates with 1× concentrated spray solution of the lipopeptide compound of Formula I(a) stock diluted in water with concentrations according to table 22, table 23, table 25 or table 26, respectively, was prepared. Each well contained 2% DMSO and 0.025% Tween20. Accordingly, a second set of master plates with 1× concentrated malonomicin stock diluted in water was prepared. Each well of the second set contained 0.025% Tween20. Leaf segments placed on agar in 24well plates were sprayed with 8 μl of solution from the master plate containing the lipopeptide compound of Formula I(a) and the leaf segments were let to dry, followed 2 hours later by 8 μl of solution from the master plate containing malonomicin. After second sprays had dried, leaf segments were infected with fungal spores to obtain a preventive application timing. Alternatively, leaf segments infected one day before spray of the compounds were used, resulting in a curative spray timing. In addition, several plates were produced where leaf segments were sprayed 2× in absence of test compound (with only DMSO and Tween20), representing the untreated check samples. For each leaf segment percent leaf coverage of disease symptoms was assessed. Percent leaf coverage reduction relative to the untreated check was calculated. Efficacy of the mixtures was tested in duplicate and on different fungal species. Reported efficacy values are the average of two replicate results.
Puccinia recondita (EPPO Code: PUCCRE) with Curative Spray Timing.
Wheat (cultivar Kanzler) leaf segments are placed on agar in multiwell plates (24-well format). The leaf disks are then inoculated with a spore suspension of the fungus. One day after inoculation the test solution is sprayed (8 ul per well). After appropriate incubation the activity of a compound is assessed 8 dpi (days after inoculation) as curative fungicidal activity

Cercospora arachidicola = test: Liquid culture 96-well mixture assay with malonomicin, Cercospora arachidicola, 5-6 days; assay type: cell-based; settings: line H malonomicin alone, concentrations in Table 8
Method: (§5) A stock solution for compound of Formula I(a) was produced in DMSO (max. 10 mg/ml). Malonomicin was produced according to Law et al, 2018 (Nature Catalys is |VOL 1|DECEMBER 2018|977-984). A stock solution of malonomicin was produced in water plus 0.025% Tween® 20.
(§6) Assays to test efficacy of mixtures of the lipopeptide compound of Formula I(a) in combination with malonomicin on the control of fungal pathogens in a liquid culture assay were designed for a 96well plate as outlined in table 1:
(§7) The 96 well plate design allows to compare disease control of the mixture with disease control of the respective single compound at the same rate.
A master plate with 10× concentrated solution of the compound stock solutions diluted in water plus 0.025% Tween® 20 was prepared. The concentration of DMSO (from the stock of compound of Formula (a)) and Tween® 20 was kept constant in all cells of the master plate. 10 μl was transferred from the master plate to a 96well test plate. The nutrient broth containing the fungal spores/mycelia fragments was then added to the test plate to give an end concentration of 1× for the tested compounds (as outlined in Table 8). The test plates were incubated in the dark at 24 °C and 96% rh. […]
Cercospora arachidicola (EPPO Code: MYCOAR)
Conidia of the fungus from cryogenic storage were directly mixed into nutrient broth (PDB: potato dextrose broth).

Botrytis cinerea = test: Liquid culture 96-well mixture assay with malonomicin, Botrytis cinerea, 72 hrs; assay type: cell-based; settings: line H malonomicin alone, concentrations in Table 8
Method: as §5, §6, §7
A master plate with 10× concentrated solution of the compound stock solutions diluted in water plus 0.025% Tween® 20 was prepared. The concentration of DMSO (from the stock of compound of Formula (a)) and Tween® 20 was kept constant in all cells of the master plate. 10 μl was transferred from the master plate to a 96well test plate. The nutrient broth containing the fungal spores/mycelia fragments was then added to the test plate to give an end concentration of 1× for the tested compounds (as outlined in Table 8). The test plates were incubated in the dark at 24 °C and 96% rh. The inhibition of fungal growth was determined photometrically after ca 3 days, and percent fungal growth reduction relative to the untreated check was calculated.
Botrytis cinerea (EPPO Code: BOTRCI)
Conidia of the fungus from cryogenic storage were directly mixed into nutrient broth (Vogel's minimal media).

Puccinia recondita [2] = test: Leaf disc mixture assay with malonomicin, Puccinia recondita, preventive spray timing, 8 dpi; assay type: in vivo, Puccinia recondita on wheat (cultivar Kanzler); settings: compound of Formula I(a) lines 1-A to 2-D = 200, 100, 50, 25, 12.5, 6.25, 3.13, 0 ppm
Method: as §1, §2, §3, §4
Puccinia recondita (EPPO Code: PUCCRE) with Preventive Spray Timing.
Wheat (cultivar Kanzler) leaf segments are placed on agar in multiwell plates (24-well format) and sprayed with test solutions (8 ul per well). After drying, the leaf disks are inoculated with a spore suspension of the fungus. After appropriate incubation the activity of a compound is assessed 8 dpi (days after inoculation) as preventive fungicidal activity.

[3] = plate column (2), highest malonomicin concentration, lines A-G with compound of Formula I(a) dilution series
[4] = plate column (3) of malonomicin dilution series, lines A-G with compound of Formula I(a)
[5] = plate column (4) of malonomicin dilution series, lines A-G with compound of Formula I(a)
[6] = plate column (5) of malonomicin dilution series, lines A-G with compound of Formula I(a)
[7] = plate column (6) of malonomicin dilution series, lines A-G with compound of Formula I(a)
[8] = plate column (7) of malonomicin dilution series, lines A-G with compound of Formula I(a)
[9] = plate column (8) of malonomicin dilution series, lines A-G with compound of Formula I(a)
[10] = plate column (9) of malonomicin dilution series, lines A-G with compound of Formula I(a)
[11] = plate column (10) of malonomicin dilution series, lines A-G with compound of Formula I(a)
[12] = plate column (11), lowest malonomicin concentration, lines A-G with compound of Formula I(a)

CC(C)CCCCCCCCCCC(=O)NC1C(=O)NC(CC(=O)O)C(=O)NC(C(O)CC(N)=O)C(=O)NC(CO)C(=O)N(C)C(CC(N)=O)C(=O)N(C)C(Cc2ccccc2)C(=O)NC(CCC(N)=O)C(=O)NC(CCC(=O)O)C(=O)OC1C (stereo not shown) [Formula I(a)] ({Tridecanoyl(12-Me)}-TD[X1]S[NMeN][NMeF]QE; ester 1-C; configuration not given here)
control of fungal growth (% reduction of symtoms on the leaf segment as compared to untreated check) (Puccinia recondita [1]; column (1): compound of Formula I(a) alone, lines 1-A to 2-C = 200, 100, 50, 25, 12.5, 6.25, 3.13 ppm): 0% and 10%

NC[C@@H]1NC(=O)C(C(=O)CC(NC(=O)[C@@H](N)CO)(C(=O)O)C(=O)O)=C1O [malonomicin, {[(2S)-2-amino-3-hydroxypropanoyl]amino}{2-[(5S)-5-(aminomethyl)-4-hydroxy-2-oxo-2,5-dihydro-1H-pyrrol-3-yl]-2-oxoethyl}malonic acid]
control of fungal growth (% reduction of growth in the test well as compared to untreated check) (Cercospora arachidicola; [3]): 100% | control of fungal growth (% reduction of growth in the test well as compared to untreated check) (Cercospora arachidicola; [4]): 90% | control of fungal growth (% reduction of growth in the test well as compared to untreated check) (Cercospora arachidicola; [5]): 70% | control of fungal growth (% reduction of growth in the test well as compared to untreated check) (Cercospora arachidicola; [6]): 70% | control of fungal growth (% reduction of growth in the test well as compared to untreated check) (Cercospora arachidicola; [7]): 50% | control of fungal growth (% reduction of growth in the test well as compared to untreated check) (Cercospora arachidicola; [8]): 50% | control of fungal growth (% reduction of growth in the test well as compared to untreated check) (Cercospora arachidicola; [9]): 20% | control of fungal growth (% reduction of growth in the test well as compared to untreated check) (Cercospora arachidicola; [10]): 20% | control of fungal growth (% reduction of growth in the test well as compared to untreated check) (Cercospora arachidicola; [11]): 0% | control of fungal growth (% reduction of growth in the test well as compared to untreated check) (Cercospora arachidicola; [12]): 0% | control of fungal growth (% reduction of growth in the test well as compared to untreated check) (Botrytis cinerea; [3]): 70% | control of fungal growth (% reduction of growth in the test well as compared to untreated check) (Botrytis cinerea; [4]): 70% | control of fungal growth (% reduction of growth in the test well as compared to untreated check) (Botrytis cinerea; [5]): 70% | control of fungal growth (% reduction of growth in the test well as compared to untreated check) (Botrytis cinerea; [6]): 70% | control of fungal growth (% reduction of growth in the test well as compared to untreated check) (Botrytis cinerea; [7]): 70% | control of fungal growth (% reduction of growth in the test well as compared to untreated check) (Botrytis cinerea; [8]): 20% | control of fungal growth (% reduction of growth in the test well as compared to untreated check) (Botrytis cinerea; [9]): 0% | control of fungal growth (% reduction of growth in the test well as compared to untreated check) (Botrytis cinerea; [10]): 0% | control of fungal growth (% reduction of growth in the test well as compared to untreated check) (Botrytis cinerea; [11]): 0% | control of fungal growth (% reduction of growth in the test well as compared to untreated check) (Botrytis cinerea; [12]): 0% | control of fungal growth (% reduction of symtoms on the leaf segment as compared to untreated check) (Puccinia recondita [1]; column (2): malonomicin 200 ppm, compound of Formula I(a) lines 1-A to 2-D = 200, 100, 50, 25, 12.5, 6.25, 3.13, 0 ppm): 100% | control of fungal growth (% reduction of symtoms on the leaf segment as compared to untreated check) (Puccinia recondita [1]; column (3): malonomicin 20 ppm, compound of Formula I(a) lines 1-A to 2-D = 200, 100, 50, 25, 12.5, 6.25, 3.13, 0 ppm): 100% | control of fungal growth (% reduction of symtoms on the leaf segment as compared to untreated check) (Puccinia recondita [1]; column (4): malonomicin 6.67 ppm, compound of Formula I(a) lines 1-A to 2-D = 200, 100, 50, 25, 12.5, 6.25, 3.13, 0 ppm): 100% | control of fungal growth (% reduction of symtoms on the leaf segment as compared to untreated check) (Puccinia recondita [1]; column (5): malonomicin 2.22 ppm, compound of Formula I(a) lines 1-A to 2-D = 200, 100, 50, 25, 12.5, 6.25, 3.13, 0 ppm): 70% | control of fungal growth (% reduction of symtoms on the leaf segment as compared to untreated check) (Puccinia recondita [1]; column (6): malonomicin 0.74 ppm, compound of Formula I(a) lines 1-A to 2-D = 200, 100, 50, 25, 12.5, 6.25, 3.13, 0 ppm): 35% | control of fungal growth (% reduction of symtoms on the leaf segment as compared to untreated check) (Puccinia recondita [2]; column (2): malonomicin 200 ppm): 100% | control of fungal growth (% reduction of symtoms on the leaf segment as compared to untreated check) (Puccinia recondita [2]; column (3): malonomicin 20 ppm): 100% | control of fungal growth (% reduction of symtoms on the leaf segment as compared to untreated check) (Puccinia recondita [2]; column (4): malonomicin 6.67 ppm): 80% | control of fungal growth (% reduction of symtoms on the leaf segment as compared to untreated check) (Puccinia recondita [2]; column (5): malonomicin 2.22 ppm): 10% | control of fungal growth (% reduction of symtoms on the leaf segment as compared to untreated check) (Puccinia recondita [2]; column (6): malonomicin 0.74 ppm): 0%
